Like-named read-outs stand apart in the source and are kept apart here.
Tests used:
JAK2 = JAK2 (Homo sapiens (Human), UniProt O60674); assay: LanthaScreen JAK biochemical assay (JAK2)
JAK1 = JAK1 (Homo sapiens (Human), UniProt P23458); assay: LanthaScreen JAK biochemical assay (JAK1)
[1] = tested on: IL-4 induced STAT6 phosphorylation in THP-1 human monocytic cells; assay: Cellular JAK potency assay, THP-1; details: for THP-1 IL4 pIC50: IL-4 induced STAT6 phosphorylation, THP-1 cells; for IC50: Homo sapiens, THP-1, read-out: THP-1 IL4 pIC50 (converted)
[2] = read-out: JAK 1 (pKi) (converted)
[3] = read-out: JAK 2 (pKi) (converted)

Sequence of JAK2 (O60674 whole entry): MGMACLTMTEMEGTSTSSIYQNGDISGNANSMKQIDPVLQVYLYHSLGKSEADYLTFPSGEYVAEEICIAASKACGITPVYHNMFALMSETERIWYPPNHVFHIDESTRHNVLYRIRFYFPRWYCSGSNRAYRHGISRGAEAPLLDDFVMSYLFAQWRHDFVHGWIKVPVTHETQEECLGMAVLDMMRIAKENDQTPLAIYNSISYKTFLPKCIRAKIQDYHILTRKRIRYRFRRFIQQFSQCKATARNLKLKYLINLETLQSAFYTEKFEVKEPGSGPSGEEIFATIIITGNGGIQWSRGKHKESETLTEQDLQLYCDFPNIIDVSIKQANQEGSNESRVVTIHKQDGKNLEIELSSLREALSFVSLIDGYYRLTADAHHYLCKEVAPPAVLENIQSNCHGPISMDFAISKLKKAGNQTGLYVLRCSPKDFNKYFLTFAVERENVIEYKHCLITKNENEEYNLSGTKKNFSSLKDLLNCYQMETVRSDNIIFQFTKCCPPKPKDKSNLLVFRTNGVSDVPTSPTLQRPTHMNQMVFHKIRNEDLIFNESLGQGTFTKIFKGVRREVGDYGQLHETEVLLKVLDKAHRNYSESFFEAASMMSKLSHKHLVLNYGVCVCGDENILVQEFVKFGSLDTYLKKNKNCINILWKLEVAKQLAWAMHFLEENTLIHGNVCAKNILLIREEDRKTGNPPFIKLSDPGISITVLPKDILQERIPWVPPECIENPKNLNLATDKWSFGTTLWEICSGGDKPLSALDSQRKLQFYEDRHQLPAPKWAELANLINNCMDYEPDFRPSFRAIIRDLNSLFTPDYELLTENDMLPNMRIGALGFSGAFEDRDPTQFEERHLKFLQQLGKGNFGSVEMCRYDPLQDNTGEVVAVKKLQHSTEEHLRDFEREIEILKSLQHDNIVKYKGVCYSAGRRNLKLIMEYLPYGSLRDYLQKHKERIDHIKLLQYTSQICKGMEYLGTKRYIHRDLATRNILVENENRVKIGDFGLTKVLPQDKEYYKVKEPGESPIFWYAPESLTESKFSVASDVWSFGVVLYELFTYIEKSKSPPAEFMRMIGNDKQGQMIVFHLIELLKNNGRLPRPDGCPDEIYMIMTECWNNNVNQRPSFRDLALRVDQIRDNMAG
Sequence of JAK1 (P23458 whole entry): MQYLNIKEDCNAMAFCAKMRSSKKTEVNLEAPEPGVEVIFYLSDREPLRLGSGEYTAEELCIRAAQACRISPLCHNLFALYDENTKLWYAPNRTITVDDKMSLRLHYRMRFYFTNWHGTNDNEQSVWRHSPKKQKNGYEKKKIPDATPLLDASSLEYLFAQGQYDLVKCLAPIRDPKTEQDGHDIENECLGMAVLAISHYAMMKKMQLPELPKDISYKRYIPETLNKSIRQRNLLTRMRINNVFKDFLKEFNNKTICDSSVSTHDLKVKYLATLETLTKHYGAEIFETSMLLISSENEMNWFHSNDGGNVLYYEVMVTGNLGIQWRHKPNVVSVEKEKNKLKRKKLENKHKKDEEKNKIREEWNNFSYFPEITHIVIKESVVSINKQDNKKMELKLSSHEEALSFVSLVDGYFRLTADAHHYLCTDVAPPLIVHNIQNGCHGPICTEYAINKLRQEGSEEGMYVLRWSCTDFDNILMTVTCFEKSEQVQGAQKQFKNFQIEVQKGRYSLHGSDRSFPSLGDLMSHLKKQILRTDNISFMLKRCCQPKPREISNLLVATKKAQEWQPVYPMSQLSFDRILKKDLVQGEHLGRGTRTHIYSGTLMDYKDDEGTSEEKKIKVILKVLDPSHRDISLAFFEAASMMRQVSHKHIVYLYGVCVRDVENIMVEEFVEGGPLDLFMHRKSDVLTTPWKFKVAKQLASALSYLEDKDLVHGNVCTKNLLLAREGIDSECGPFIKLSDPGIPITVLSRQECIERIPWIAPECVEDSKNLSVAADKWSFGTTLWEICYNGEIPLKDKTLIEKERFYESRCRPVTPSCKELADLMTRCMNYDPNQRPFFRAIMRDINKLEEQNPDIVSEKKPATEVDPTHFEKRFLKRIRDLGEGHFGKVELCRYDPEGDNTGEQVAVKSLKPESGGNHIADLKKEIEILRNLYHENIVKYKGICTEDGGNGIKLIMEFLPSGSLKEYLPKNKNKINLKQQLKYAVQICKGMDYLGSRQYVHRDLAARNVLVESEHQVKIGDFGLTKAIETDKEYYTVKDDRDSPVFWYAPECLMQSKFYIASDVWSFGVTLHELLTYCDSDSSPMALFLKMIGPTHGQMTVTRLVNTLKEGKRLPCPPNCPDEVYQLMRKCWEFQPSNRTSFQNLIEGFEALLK

For C=CCOC(=O)N1[C@@H]2CC[C@H]1C[C@H](Nc1nc(Nc3cc(C)[nH]n3)cc3ncccc13)C2 [Example 3-4], the “JAK 2 (pKi)” value (JAK2) was “B (B represents a pKi value between 9 and 10 (Ki between 1 nM and 0.1 nM))”, the “JAK 1 (pKi)” value (JAK1) was “B (B represents a pKi value between 9 and 10 (Ki between 1 nM and 0.1 nM))” and the “THP-1 IL4 pIC50” value [1] was “A (A represents a pEC50 value≥7.5 (EC50≤32 nM))”.
In the case of Cc1cc(Nc2cc3ncccc3c(N[C@@H]3C[C@H]4CCC[C@@H](C3)N4C(=O)OCC(C)C)n2)n[nH]1 [Example 3-7], the “JAK 2 (pKi)” value (JAK2) is reported as “B (B represents a pKi value between 9 and 10 (Ki between 1 nM and 0.1 nM))”, the “JAK 1 (pKi)” value (JAK1) is reported as “B (B represents a pKi value between 9 and 10 (Ki between 1 nM and 0.1 nM))” and the “THP-1 IL4 pIC50” value [1] is reported as “B (B represents a pEC50 value between 6.7 and 7.5 (EC50 between 200 nM and 32 nM))”.
C=CCOC(=O)N1[C@@H]2CCC[C@H]1C[C@H](Nc1nc(Nc3cc(C)[nH]n3)cc3ncccc13)C2 [Example 3-8] was tested, and the “JAK 2 (pKi)” value (JAK2) was “B (B represents a pKi value between 9 and 10 (Ki between 1 nM and 0.1 nM))”, the “JAK 1 (pKi)” value (JAK1) was “B (B represents a pKi value between 9 and 10 (Ki between 1 nM and 0.1 nM))” and the “THP-1 IL4 pIC50” value [1] was “A (A represents a pEC50 value≥7.5 (EC50≤32 nM))”.
For COCCOC(=O)N1[C@@H]2CCC[C@H]1C[C@H](Nc1nc(Nc3cc(C)[nH]n3)cc3ncccc13)C2 [Example 3-9], the “JAK 2 (pKi)” value (JAK2) was “B (B represents a pKi value between 9 and 10 (Ki between 1 nM and 0.1 nM))”, the “JAK 1 (pKi)” value (JAK1) was “B (B represents a pKi value between 9 and 10 (Ki between 1 nM and 0.1 nM))” and the “THP-1 IL4 pIC50” value [1] was “A (A represents a pEC50 value≥7.5 (EC50≤32 nM))”.
Cc1cc(Nc2cc3ncccc3c(N[C@@H]3C[C@H]4CC[C@@H](C3)N4S(=O)(=O)C3CCCC3)n2)n[nH]1 [Example 4-5] gave a Ki (JAK2) of 0.1 to 1 nM, a Ki (JAK1; [2]) of 0.1 to 1 nM and an IC50 [1] of less than 31.6 nM.
Compound Cc1cc(Nc2cc3ncccc3c(N[C@@H]3C[C@H]4CC[C@@H](C3)N4S(=O)(=O)N3CCC3)n2)n[nH]1 [Example 4-6] has a Ki (JAK2) of 0.1 to 1 nM, a Ki (JAK1; [2]) of 0.1 to 1 nM and an IC50 [1] of less than 31.6 nM.
In the case of Cc1cc(Nc2cc3ncccc3c(N[C@@H]3C[C@H]4CC[C@@H](C3)N4S(=O)(=O)C3CNC3)n2)n[nH]1 [Example 4-9], the Ki (JAK2; [3]) is reported as 0.1 to 1 nM, the Ki (JAK1) is reported as 0.1 to 1 nM and the IC50 [1] is reported as greater than 200 nM.
In the case of Cc1cc(Nc2cc3ncccc3c(N[C@@H]3C[C@H]4CCC[C@@H](C3)N4S(=O)(=O)Cc3ccccc3)n2)n[nH]1 [Example 4-24], the “JAK 2 (pKi)” value (JAK2) is reported as “B (B represents a pKi value between 9 and 10 (Ki between 1 nM and 0.1 nM))”, the “JAK 1 (pKi)” value (JAK1) is reported as “B (B represents a pKi value between 9 and 10 (Ki between 1 nM and 0.1 nM))” and the “THP-1 IL4 pIC50” value [1] is reported as “B (B represents a pEC50 value between 6.7 and 7.5 (EC50 between 200 nM and 32 nM))”.
With Cc1ccc(S(=O)(=O)N2[C@@H]3CCC[C@H]2C[C@H](Nc2nc(Nc4cc(C)[nH]n4)cc4ncccc24)C3)cn1 [Example 4-25] the “JAK 2 (pKi)” value (JAK2) was “B (B represents a pKi value between 9 and 10 (Ki between 1 nM and 0.1 nM))”, the “JAK 1 (pKi)” value (JAK1) was “B (B represents a pKi value between 9 and 10 (Ki between 1 nM and 0.1 nM))” and the “THP-1 IL4 pIC50” value [1] was “A (A represents a pEC50 value≥7.5 (EC50≤32 nM))”.
In the case of Cc1cc(Nc2cc3nc(CN4CCC(F)(F)CC4)ccc3c(N[C@@H]3C[C@H]4CC[C@@H](C3)N4S(=O)(=O)c3cncc(F)c3)n2)n[nH]1 [Example 5-31], the Ki (JAK2; [3]) is reported as 0.1 to 1 nM, the Ki (JAK1) is reported as 0.1 to 1 nM and the IC50 [1] is reported as 31.6 to 200 nM.
Work on Cc1cc(Nc2cc3nc(CN4CCN(C)CC4)ccc3c(N[C@@H]3C[C@H]4CC[C@@H](C3)N4S(=O)(=O)c3cncc(F)c3)n2)n[nH]1 [Example 5-40] yielded a Ki (JAK2; [3]) of 0.1 to 1 nM, a Ki (JAK1; [2]) of 0.1 to 1 nM and an IC50 [1] of 31.6 to 200 nM.
With Cc1cc(Nc2cc3nc(CS(C)(=O)=O)ccc3c(N[C@@H]3C[C@H]4CC[C@@H](C3)N4CCCF)n2)n[nH]1 [Example 5-42] the “JAK 2 (pKi)” value (JAK2) was “B (B represents a pKi value between 9 and 10 (Ki between 1 nM and 0.1 nM))”, the “JAK 1 (pKi)” value (JAK1) was “B (B represents a pKi value between 9 and 10 (Ki between 1 nM and 0.1 nM))” and the “THP-1 IL4 pIC50” value [1] was “C (C represents a pEC50 value<6.7 (EC50>200 nM))”.
